Experiments:
[1] = The drug is tested on Bacteroides dorei strain: DSM17855 for biotransformation. The drug concentrations were measured before and after a 12-h incubation by liquid-chromatography-coupled mass spectrometry (LC–MS); settings: phocaeicola dorei, 2 µM
[2] = The drug is tested on Clostridium scindens strain: ATCC35704 for biotransformation. The drug concentrations were measured before and after a 12-h incubation by liquid-chromatography-coupled mass spectrometry (LC–MS); settings: 2 µM
[3] = The drug is tested on Collinsella aerofaciens strain: ATCC25986 for biotransformation. The drug concentrations were measured before and after a 12-h incubation by liquid-chromatography-coupled mass spectrometry (LC–MS); settings: 2 µM
[4] = The drug is tested on Bacteroides fragilis strain: HMW610 for biotransformation. The drug concentrations were measured before and after a 12-h incubation by liquid-chromatography-coupled mass spectrometry (LC–MS); settings: 2 µM
[5] = The drug is tested on Eubacterium hallii strain: DSM3353 for biotransformation. The drug concentrations were measured before and after a 12-h incubation by liquid-chromatography-coupled mass spectrometry (LC–MS); settings: anaerobutyricum hallii, 2 µM
[6] = The drug is tested on Bacteroides cellulosilyticus strain: DSM14838 for biotransformation. The drug concentrations were measured before and after a 12-h incubation by liquid-chromatography-coupled mass spectrometry (LC–MS); settings: 2 µM
[7] = The drug is tested on Ruminococcus lactaris strain: ATCC29176 for biotransformation. The drug concentrations were measured before and after a 12-h incubation by liquid-chromatography-coupled mass spectrometry (LC–MS); settings: 2 µM
[8] = The drug is tested on Blautia hansenii strain: DSM20583 for biotransformation. The drug concentrations were measured before and after a 12-h incubation by liquid-chromatography-coupled mass spectrometry (LC–MS); settings: 2 µM
[9] = The drug is tested on Bacteroides fragilis strain: ATCC43859 for biotransformation. The drug concentrations were measured before and after a 12-h incubation by liquid-chromatography-coupled mass spectrometry (LC–MS); settings: 2 µM
[10] = segatella copri, 12 h, 2 µM
[11] = enterocloster bolteae, 12 h, 2 µM
[12] = The drug is tested on Odoribacter splanchnicus strain: fecal isolate for biotransformation. The drug concentrations were measured before and after a 12-h incubation by liquid-chromatography-coupled mass spectrometry (LC–MS); settings: 2 µM
[13] = The drug is tested on Eubacterium rectale strain: ATCC33656 for biotransformation. The drug concentrations were measured before and after a 12-h incubation by liquid-chromatography-coupled mass spectrometry (LC–MS); settings: agathobacter rectalis, 2 µM
[14] = The drug is tested on Coprococcus comes strain: ATCC27758 for biotransformation. The drug concentrations were measured before and after a 12-h incubation by liquid-chromatography-coupled mass spectrometry (LC–MS); assay type: ADME; set-up: dose 2 uM, timepoint 0 vs 12 hours; settings: 2 µM
[15] = The drug is tested on Bacteroides pectinophilus strain: ATCC43243 for biotransformation. The drug concentrations were measured before and after a 12-h incubation by liquid-chromatography-coupled mass spectrometry (LC–MS); settings: 2 µM
[16] = The drug is tested on Eubacterium ventriosum strain: ATCC27560 for biotransformation. The drug concentrations were measured before and after a 12-h incubation by liquid-chromatography-coupled mass spectrometry (LC–MS); assay type: ADME; set-up: dose 2 uM, timepoint 0 vs 12 hours; settings: 2 µM
[17] = The drug is tested on Collinsella intestinalis strain: DSM13280 for biotransformation. The drug concentrations were measured before and after a 12-h incubation by liquid-chromatography-coupled mass spectrometry (LC–MS); settings: 2 µM
[18] = The drug is tested on Escherichia coli strain: BW25113 for biotransformation. The drug concentrations were measured before and after a 12-h incubation by liquid-chromatography-coupled mass spectrometry (LC–MS); settings: 2 µM
[19] = The drug is tested on Enterococcus faecalis strain: V583 for biotransformation. The drug concentrations were measured before and after a 12-h incubation by liquid-chromatography-coupled mass spectrometry (LC–MS); settings: 2 µM

Structure (SMILES)	Bacterial Biotransformation [1]	Bacterial Biotransformation [2]	Bacterial Biotransformation [3]	Bacterial Biotransformation [4]	Bacterial Biotransformation [5]	Bacterial Biotransformation [6]	Bacterial Biotransformation [7]	Bacterial Biotransformation [8]	Bacterial Biotransformation [9]	Bacterial Biotransformation [10]	Bacterial Biotransformation [11]	Bacterial Biotransformation [12]	Bacterial Biotransformation [13]	Bacterial Biotransformation [14]	Bacterial Biotransformation [15]	Bacterial Biotransformation [16]	Bacterial Biotransformation [17]	Bacterial Biotransformation [18]	Bacterial Biotransformation [19]
CC(=O)OCC(CCn1cnc2cnc(N)nc21)COC(C)=O [FAMCICLOVIR]	Compound metabolized	Compound NOT metabolized	Compound NOT metabolized	Compound metabolized	Compound NOT metabolized	Compound metabolized	Compound NOT metabolized	Compound NOT metabolized	Compound metabolized	Compound metabolized	Compound NOT metabolized	Compound metabolized	Compound NOT metabolized	Compound NOT metabolized	Compound NOT metabolized	Compound NOT metabolized	Compound NOT metabolized	–	–
O=C1NCC2(CCN(CCc3ccccc3)CC2)O1 [FENSPIRIDE]	Compound metabolized	Compound NOT metabolized	Compound NOT metabolized	Compound metabolized	Compound NOT metabolized	Compound NOT metabolized	Compound NOT metabolized	–	Compound metabolized	Compound metabolized	Compound NOT metabolized	Compound NOT metabolized	Compound NOT metabolized	Compound NOT metabolized	Compound NOT metabolized	Compound NOT metabolized	Compound NOT metabolized	Compound NOT metabolized	Compound NOT metabolized
CC(C)(C(=O)O)c1ccc(C(O)CCCN2CCC(C(O)(c3ccccc3)c3ccccc3)CC2)cc1 (configuration not stated) [FEXOFENADINE]	Compound NOT metabolized	Compound NOT metabolized	Compound NOT metabolized	Compound NOT metabolized	Compound NOT metabolized	Compound NOT metabolized	–	Compound NOT metabolized	Compound NOT metabolized	Compound NOT metabolized	Compound NOT metabolized	Compound NOT metabolized	Compound NOT metabolized	–	Compound NOT metabolized	–	Compound NOT metabolized	–	Compound NOT metabolized
OC(Cn1cncn1)(Cn1cncn1)c1ccc(F)cc1F [FLUCONAZOLE]	Compound metabolized	Compound metabolized	Compound NOT metabolized	Compound metabolized	–	Compound NOT metabolized	Compound NOT metabolized	Compound metabolized	–	Compound NOT metabolized	Compound NOT metabolized	Compound metabolized	–	–	Compound NOT metabolized	Compound NOT metabolized	Compound NOT metabolized	Compound NOT metabolized	Compound NOT metabolized
Cc1ccc(NC(=O)c2ccc(CN3CCN(C)CC3)cc2)cc1Nc1nccc(-c2cccnc2)n1 [IMATINIB]	Compound NOT metabolized	–	Compound NOT metabolized	Compound NOT metabolized	–	Compound NOT metabolized	Compound NOT metabolized	Compound NOT metabolized	Compound NOT metabolized	Compound NOT metabolized	Compound NOT metabolized	Compound NOT metabolized	–	Compound NOT metabolized	–	Compound NOT metabolized	Compound NOT metabolized	–	Compound NOT metabolized
C#C[C@]1(O)CC[C@H]2[C@@H]3CCC4=CC(=O)CC[C@@H]4[C@H]3CC[C@@]21CC [LEVONORGESTREL]	Compound metabolized	Compound NOT metabolized	Compound NOT metabolized	Compound metabolized	Compound NOT metabolized	Compound metabolized	–	–	Compound metabolized	Compound NOT metabolized	Compound NOT metabolized	Compound metabolized	Compound NOT metabolized	Compound NOT metabolized	Compound NOT metabolized	Compound NOT metabolized	Compound NOT metabolized	Compound NOT metabolized	–
Cc1ccccc1N1C(=O)c2cc(S(N)(=O)=O)c(Cl)cc2NC1C (configuration not stated) [METOLAZONE]	–	–	Compound NOT metabolized	Compound NOT metabolized	Compound NOT metabolized	Compound NOT metabolized	–	–	Compound NOT metabolized	Compound NOT metabolized	–	Compound NOT metabolized	–	–	Compound NOT metabolized	–	Compound NOT metabolized	–	Compound NOT metabolized
CN1CCN2c3ccccc3Cc3ccccc3C2C1 (configuration not stated) [MIANSERIN]	Compound NOT metabolized	Compound NOT metabolized	Compound NOT metabolized	Compound NOT metabolized	Compound NOT metabolized	Compound NOT metabolized	Compound NOT metabolized	Compound NOT metabolized	–	–	Compound NOT metabolized	Compound NOT metabolized	Compound NOT metabolized	Compound NOT metabolized	Compound NOT metabolized	Compound NOT metabolized	Compound NOT metabolized	Compound NOT metabolized	Compound NOT metabolized
CCN(CC)CCOC(=O)C(Cc1cccc2ccccc12)CC1CCCO1.O=C(O)C(=O)O (configuration not stated) [NAFRONYL OXALATE]	–	Compound NOT metabolized	Compound NOT metabolized	–	Compound NOT metabolized	Compound NOT metabolized	Compound NOT metabolized	Compound metabolized	Compound NOT metabolized	Compound metabolized	Compound NOT metabolized	Compound metabolized	Compound NOT metabolized	Compound NOT metabolized	–	Compound NOT metabolized	Compound NOT metabolized	–	Compound NOT metabolized
